Test results reported in US7160733B2, “Ligand specific to β2-glycoprotein I and use thereof” (priority 2001, dated 2007).
One block for each molecule: values may come before it.

What was measured:
β2-GPI [1] = target: T1, β2-GPI (Homo sapiens, UniProt P02749); assay: Optical biosensor (IAsys): binding to solid phase β2-GPI; conditions: result in words
T1 construct: β2-GPI was purified from normal human plasma as described in [35] with slight modification; from tissue; host or cells: pooled normal human plasma from healthy subjects
T1 sequence (P02749 20-345): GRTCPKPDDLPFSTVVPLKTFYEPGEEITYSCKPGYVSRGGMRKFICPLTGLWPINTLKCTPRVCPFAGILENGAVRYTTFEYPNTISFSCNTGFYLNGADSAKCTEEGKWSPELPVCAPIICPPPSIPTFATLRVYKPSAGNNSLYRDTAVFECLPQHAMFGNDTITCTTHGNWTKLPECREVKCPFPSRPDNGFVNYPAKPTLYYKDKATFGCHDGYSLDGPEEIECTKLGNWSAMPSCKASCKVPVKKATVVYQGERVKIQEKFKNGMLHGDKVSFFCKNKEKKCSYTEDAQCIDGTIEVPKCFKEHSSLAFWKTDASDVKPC
Text: (§1) FIG. 1. Molecular interactions among β2-GPI, LDLs, […] (PLs), and anti-β2-GPI autoantibody, detected by an optical biosensor. • A: LDL (open square) or oxLDL (closed square) binding to solid phase β2-GPI; • B: LDL (open square) or oxLDL (closed square) binding to solid phase WB-CAL-1 in the presence of β2-GPI; • C: DOPE (open circle) or CL (closed circle) binding to solid phase β2-GPI; and • D: DOPE (open circle) or CL (closed circle) binding to solid phase WB-CAL-1 in the presence of β2-GPI.
(§2) Real-time molecular analysis was performed using an optical biosensor, IAsys (product of Affinity Sensors).
(§3) Binding of β2-GPI to LDLs or liposomes: Biotinyl-β2-GPI was immobilized on a biotinyl-cuvette via streptavidin. LDLs or liposomes at various concentrations were placed in the cuvette. Antibodies binding to LDLs or liposomes: The biotinyl-WB-CAL-1 was immobilized on the cuvette. LDLs or liposomes were added at various concentrations in the presence (10 μg/mL) or absence of β2-GPI.

WB-CAL-1 [2] = assay: Optical biosensor (IAsys): binding to solid phase WB-CAL-1 in the presence of β2-GPI; parameters: species or system mouse; conditions: β2-GPI 10 μg/mL, result in words
Text: as §1, §2, §3

APS-2 = assay: ELISA on solid-phase lipid-coated plate: binding of antibodies of APS patient serum APS-2; parameters: species or system human; conditions: Absorbance, mean ± SD, n = 3; for Binding of protein-dependent oxLig-1 antibody, APS-2: Experiment 2, synthesized oxLig-1-solidified plate, added protein 15 μg/mL
Method: (§4) To eliminate endogenous β2-GPI in some experiments, serum samples were passed through a heparin-Sepharose column. The effluent was dialyzed against PBS and was used for ELISAs.
(§5) Synthesized oxLig-1 (50 μg/mL, 50 μL/well) was adsorbed by evaporation on a polystyrene plate (Immulon 1B; Dynex Technologies Inc.), and the plate was then blocked with 1% BSA. Serum samples (diluted 1:100 with PBS containing 0.3% BSA) were incubated in the wells with β2-GPI (15 μg/mL) or other proteins for one hour at room temperature. Antibody binding was detected with HRP-labeled anti-human IgG. Further steps were performed through a method as described in “anti-β2-GPI ELISA.”
(§6) CL (50 μg/mL, 50 μL/well) was adsorbed on a polystyrene plate (Immulon 1B), and further steps were performed through a method as described in “ELISA for antibodies against a protein-oxLig-1 complex.”

WB-CAL-1 [3] = assay: ELISA on solid-phase lipid (ligand)-coated plate: WB-CAL-1 binding in presence of β2-GPI; parameters: species or system mouse; conditions: Absorbance, mean ± SD, n = 3; for Binding of protein-dependent oxLig-1 antibody, WB-CAL-1: Experiment 2, synthesized oxLig-1-solidified plate, added protein 15 μg/mL
Method: (§7) Binding to extracted lipids: A microtiter plate (Immulon 1B, Dynex Technologies Inc.) was coated with lipids extracted from LDLs (50 μg/mL, 50 μL/well) by ethanol evaporation. The wells were blocked with PBS containing 1% BSA for one hour and the wells were incubated with 30 μg/mL of β2-GPI for one hour. Then, β2-GPI binding was detected using Cof-22 and HRP-labeled anti-mouse IgG antibodies. Alternatively, an anti-β2-GPI autoantibody (Cof-22, WB-CAL-1, or EY2C9) was diluted with a 0.3% BSA-containing PBS, and the diluted antibody was added to the coated plate (1.0 μg/mL, 100 μL/well) and incubated with β2-GPI (15 μg/mL) for one hour. The binding of the antibody was detected by an HRP-labeled anti-mouse IgG /or an anti-human IgM. The color was developed with H2O2 and o-phenylenediamine, and OD was measured at 490 nm. Between these steps, extensive washing were done using PBS containing 0.05% Tween 20.
as §5, §6

anti-β2-GPI antibodies = assay: ELISA of the anti-β2-GPI antibodies by use of a ligand-coated plate (results in words); format: binding
Method: as §7, §5

β2-GPI [4] = target: T1, β2-GPI; assay: ELISA on solid-phase lipid (ligand)-coated plate: β2-GPI binding detected with Cof-22; conditions: Experiment 1; Absorbance, mean ± SD, n = 3; solid-phase lipid, β2-GPI 15 μg/mL
Method: as §7, §5, §6

EY2C9 = assay: ELISA on solid-phase lipid (ligand)-coated plate: EY2C9 binding in presence of β2-GPI; parameters: species or system human; conditions: Absorbance, mean ± SD, n = 3; for Binding of protein-dependent oxLig-1 antibody, EY2C9: Experiment 2, synthesized oxLig-1-solidified plate, added protein 15 μg/mL
Method: as §7, §5, §6

APS-1 = assay: ELISA on solid-phase lipid-coated plate: binding of antibodies of APS patient serum APS-1; parameters: species or system human; conditions: Absorbance, mean ± SD, n = 3; for Binding of protein-dependent oxLig-1 antibody, APS-1: Experiment 2, synthesized oxLig-1-solidified plate, added protein 15 μg/mL
Method: as §4, §5, §6

β2-GPI [5] = assay: ELISA on solid-phase lipid (ligand)-coated plate: β2-GPI binding detected with Cof-22; parameters: species or system human; conditions: Experiment 2; Absorbance, mean ± SD, n = 3; synthesized oxLig-1-solidified plate, added protein 15 μg/mL
Method: as §7, §5, §6

[6] = Experiment 1, solid-phase lipid, β2-GPI 15 μg/mL, serum with β2-GPI removed
[7] = Experiment 1, solid-phase lipid, β2-GPI 15 μg/mL

binding to solid phase β2-GPI (β2-GPI [1]): did not show any specific binding
binding to solid phase WB-CAL-1 in the presence of β2-GPI (WB-CAL-1 [2]): did not
Molecule: CCCCCCCC/C=C\CCCCCCCC(=O)OC[C@H](COP(=O)(O)OCCN)OC(=O)CCCCCCC/C=C\CCCCCCCC [DOPE]

Binding of β2-GPI-dependent aCL, APS-2 (APS-2; [6]): 1.282 ± 0.041
Binding of β2-GPI-dependent aCL, WB-CAL-1 (WB-CAL-1 [3]; [7]): 1.361 ± 0.008
binding to solid phase β2-GPI (β2-GPI [1]): large extent of binding
Binding of β2-GPI-dependent aCL, Cof-22 (β2-GPI [4]): 1.132 ± 0.025
Binding of β2-GPI-dependent aCL, EY2C9 (EY2C9; [7]): 1.269 ± 0.014
binding to solid phase WB-CAL-1 in the presence of β2-GPI (WB-CAL-1 [2]): dose-dependent binding
Binding of β2-GPI-dependent aCL, APS-1 (APS-1; [6]): 2.099 ± 0.216
Molecule: Cardiolipin [CL, reference compound]
cross-reaction of autoantibodies derived from APS with β2-GPI complexed with lipid (anti-β2-GPI antibodies; result in words): cross-reacted

Binding of protein-dependent oxLig-1 antibody, APS-2 (APS-2): 0.015 ± 0.002
Binding of protein-dependent oxLig-1 antibody, WB-CAL-1 (WB-CAL-1 [3]): 0.006 ± 0.001
antibody binding to solid-phase oxLig-1 provided by added protein (anti-β2-GPI antibodies; Exp-2, result in words): no antibody binding
Binding of protein-dependent oxLig-1 antibody, Cof-22 (β2-GPI [5]): 0.049 ± 0.001
Binding of protein-dependent oxLig-1 antibody, EY2C9 (EY2C9): 0.006 ± 0.001
Binding of protein-dependent oxLig-1 antibody, APS-1 (APS-1): 0.018 ± 0.011
Molecule: Haptoglobin: protein having sushi domains, without PL binding property

Binding of protein-dependent oxLig-1 antibody, APS-2 (APS-2): 0.016 ± 0.001
Binding of protein-dependent oxLig-1 antibody, WB-CAL-1 (WB-CAL-1 [3]): 0.006 ± 0.002
Binding of protein-dependent oxLig-1 antibody, Cof-22 (β2-GPI [5]): 0.042 ± 0.001
Binding of protein-dependent oxLig-1 antibody, EY2C9 (EY2C9): 0.004 ± 0.002
Binding of protein-dependent oxLig-1 antibody, APS-1 (APS-1): 0.009 ± 0.004
B1: Ovalbumin: control protein added in Experiment 2 (protein, UniProt P01012 2-386, looked up)
Ovalbumin: GSIGAASMEFCFDVFKELKVHHANENIFYCPIAIMSALAMVYLGAKDSTRTQINKVVRFDKLPGFGDSIEAQCGTSVNVHSSLRDILNQITKPNDVYSFSLASRLYAEERYPILPEYLQCVKELYRGGLEPINFQTAADQARELINSWVESQTNGIIRNVLQPSSVDSQTAMVLVNAIVFKGLWEKAFKDEDTQAMPFRVTEQESKPVQMMYQIGLFRVASMASEKMKILELPFASGTMSMLVLLPDEVSGLEQLESIINFEKLTEWTSSNVMEERKIKVYLPRMKMEEKYNLTSVLMAMGITDVFSSSANLSGISSAESLKISQAVHAAHAEINEAGREVVGSAEAGVDAASVSEEFRADHPFLFCIKHIATNAVLFFGRCVSP
